Reference: ChEMBL document CHEMBL1201862, “PubChem BioAssay data set” (2004)
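Test compounds were applied to cells in 96-well plates for 48 hours at 5 doses. Here, GI50 denotes the concentration required for 50% inhibition of growth.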 Calls of active or inactive are those of the source. Cut-off read from the data, not from the text of the source: active = GI50 up to about 1.1 µM and inactive = higher.

Experiments:
Experiment in all cases: NCI-60 cell line screen, 48 h
K562 = tested on: K562
NCI/ADR-RES = tested on: NCI/ADR-RES
HCT-15 = tested on: HCT-15
A549 = tested on: A549
MDA-MB-435 = tested on: MDA-MB-435
HT-29 = tested on: HT-29
COLO 205 = tested on: COLO 205
NCI-H522 = tested on: NCI-H522
SK-OV-3 = tested on: SK-OV-3
NCI-H460 = tested on: NCI-H460
UACC-257 = tested on: UACC-257
SN12C = tested on: SN12C
RPMI-8226 = tested on: RPMI-8226
EKVX = tested on: EKVX
MCF7 = tested on: MCF7
SK-MEL-2 = tested on: SK-MEL-2
Malme-3M = tested on: Malme-3M

Row | SMILES | GI50 (K562) | GI50 (NCI/ADR-RES) | GI50 (HCT-15) [µM] | GI50 (A549) | GI50 (MDA-MB-435) | GI50 (HT-29) | GI50 (COLO 205) | GI50 (NCI-H522) | GI50 (SK-OV-3) | GI50 (NCI-H460) | GI50 (UACC-257) | GI50 (SN12C) | GI50 (RPMI-8226) | GI50 (EKVX) | GI50 (MCF7) | GI50 (SK-MEL-2) | GI50 (Malme-3M)
1 | Cc1cc(O)nc2cc3oc4ccccc4c3cc12 | 30.9 µM (inactive) | > 100 µM (inactive) | > 61.2 | 7.64 µM (inactive) | > 88.1 µM (inactive) | 44.8 µM (inactive) | 16.7 µM (inactive) | 34.1 µM (inactive) | > 57.9 µM (inactive) | 3.91 µM (inactive) | > 50.2 µM (inactive) | > 100 µM (inactive) | 37.9 µM (inactive) | 0.0448 µM (active) | 4.55 µM (inactive) | > 100 µM (inactive) | > 30.1 µM (inactive)
2 | O=[N+]([O-])c1ccc(N2N=C(c3ccc4ccccc4c3O)CC2c2ccc(Cl)cc2)c([N+](=O)[O-])c1 (stereo not drawn) | 14.5 µM (inactive) | 30.6 µM (inactive) | 30.3 | 30.4 µM (inactive) | 16.9 µM (inactive) | 33 µM (inactive) | 29.6 µM (inactive) | 22.1 µM (inactive) | 80.2 µM (inactive) | 25.4 µM (inactive) | 32.1 µM (inactive) | 33.2 µM (inactive) | 12.8 µM (inactive) |  | 20.3 µM (inactive) | 33.6 µM (inactive) | 21.5 µM (inactive)
3 | O=C(NNC(=O)c1ccccc1Cl)c1ccccc1O | 91 µM (inactive) | 20.3 µM (inactive) | 21.7 | 56.2 µM (inactive) | 67 µM (inactive) | 23.8 µM (inactive) | 35.2 µM (inactive) | 12.2 µM (inactive) | 18.2 µM (inactive) | 23.6 µM (inactive) | > 100 µM (inactive) | > 100 µM (inactive) | > 100 µM (inactive) | 16.3 µM (inactive) | 41.4 µM (inactive) | 53.7 µM (inactive) | 4.24 µM (inactive)
4 | Cc1ccc(/C=N/Nc2nncc3ccccc23)s1 | > 100 µM (inactive) | 48 µM (inactive) | > 100 | > 100 µM (inactive) | 97.1 µM (inactive) | > 100 µM (inactive) | > 100 µM (inactive) | 31.5 µM (inactive) | > 84.1 µM (inactive) | > 100 µM (inactive) | > 100 µM (inactive) | > 100 µM (inactive) | > 100 µM (inactive) | > 100 µM (inactive) | 19.5 µM (inactive) | > 95.3 µM (inactive) | > 75.9 µM (inactive)
5 | COC(=O)c1c2c(cc3c1CC1(Cc4cc5c(cc4C1)CCC5)C3)CCC2 | > 100 µM (inactive) | > 100 µM (inactive) | > 100 | > 100 µM (inactive) | 77.4 µM (inactive) | > 100 µM (inactive) |  | > 100 µM (inactive) | > 100 µM (inactive) | > 100 µM (inactive) | > 100 µM (inactive) |  | > 100 µM (inactive) | > 100 µM (inactive) | > 100 µM (inactive) | > 100 µM (inactive) | > 100 µM (inactive)
6 | CC(=O)c1c2c(cc3c1CC1(Cc4cc5c(cc4C1)CCCC5)C3)CCCC2 | 9.66 µM (inactive) | > 100 µM (inactive) | 36.1 | > 100 µM (inactive) | 16.9 µM (inactive) | 50.9 µM (inactive) | 77.1 µM (inactive) | 20.9 µM (inactive) | > 100 µM (inactive) |  | 13 µM (inactive) | > 100 µM (inactive) | 11.8 µM (inactive) | > 100 µM (inactive) | 19.4 µM (inactive) | 18.8 µM (inactive) | 94.8 µM (inactive)
7 | O=C1CCSc2c(cnc3ccccc23)N1 | > 100 µM (inactive) | > 100 µM (inactive) | > 100 | > 100 µM (inactive) | > 100 µM (inactive) | > 100 µM (inactive) | > 100 µM (inactive) | > 100 µM (inactive) | > 100 µM (inactive) | 89.7 µM (inactive) | > 100 µM (inactive) | > 100 µM (inactive) | > 100 µM (inactive) | 32.1 µM (inactive) | 97.1 µM (inactive) | 80 µM (inactive) | > 100 µM (inactive)
8 | COc1ccc2c(c1)C1Oc3ccccc3CC1CO2 (stereo not drawn) | 52.2 µM (inactive) | 42.1 µM (inactive) | 34.1 | 55.3 µM (inactive) | 47 µM (inactive) | 42 µM (inactive) | 53.1 µM (inactive) | 45 µM (inactive) | 97.5 µM (inactive) | 96.8 µM (inactive) | 35.9 µM (inactive) | 35.4 µM (inactive) | 25.6 µM (inactive) | 47.2 µM (inactive) | 78.2 µM (inactive) | 21.5 µM (inactive) | 54 µM (inactive)
9 | COc1cc2c(c(OC)c1OC)-c1ccc(OC)c(=O)cc1C(NC(=O)CCCCCNc1ccc(N=[N+]=[N-])cc1[N+](=O)[O-])CC2 (stereo not drawn) | < 0.01 µM (active) | 0.422 µM (active) | 0.0418 | < 0.01 µM (active) | < 0.01 µM (active) | < 0.01 µM (active) | < 0.01 µM (active) | < 0.01 µM (active) | < 0.01 µM (active) | < 0.01 µM (active) |  | < 0.01 µM (active) | < 0.01 µM (active) | < 0.0136 µM (active) | < 0.01 µM (active) | < 0.01 µM (active) | < 0.01 µM (active)
